We go through 11 compounds from publication PMC12693026, “Green Contributions to the Chemistry of Perezone and Oxidation of the Double Bond of the Side Chain: A Theoretical Study and Cytotoxic Evaluation in MDA-MB231 Cells” (Molecules, 2025).

The test system of data set [1] is MDA-MB-231 breast cancer cells. Kind of data set: MTT cytotoxicity assay on MDA-MB-231 breast cancer cells. The data set is classed as cell-based. The conditions noted are these: mean ± S.D. of three values. The procedure:
(§1) This test was performed using the MDA-MB231 breast cancer cell line (ATCC® CRM-HBT-26), as described by Mosmann. The cells were incubated at different concentrations of the compounds of interest. To generate the cell viability curves of all synthesized compounds, cells were seeded in 96-well culture plates at a density of 5000 cells/well and cultured in DMEM supplemented with 10% FBS. Cell viability was measured using MTT reagent dissolved in PBS (0.5 mg/mL). On the day of measurement, the medium was carefully replaced with fresh DMEM and 10% SFB containing diluted MTT (1:10, 10% MTT), and the sample was incubated for 1 h at 37 °C in a CO2 incubator to allow for the transformation of MTT dye into Formazan salt. After removing the incubation medium, the Formazan crystals were dissolved in 100 µL of DMSO solution. It is also important to note that the reduction in MTT was quantified by measuring absorbance at 570 nm using the Benchmark Plus absorbance microplate reader (Bio-Rad). The MTT test was repeated nine times. The proliferation percentage (% viability) was calculated according to the following:% Viability = (B/A) × 100 where A is the absorbance value of the control group and B is the absorbance value of the cells treated with the compounds of interest.
IC50 was extrapolated from the dose–response plot, obtained by plotting viability versus concentration. The concentration of the drug that reduced the viability of the cells by 50% (IC50) was determined by plotting the data points in triplicate over a concentration range and calculating the values using regression analysis.

Data set [2] is described as follows: MTT mortality on normal fibroblasts (control). The data set is classed as cell-based. The note with it: human, primary dermal fibroblast normal cells, data from IC50 (µM). The procedure:
[The source words this procedure for another cell line and says it was used here with some conditions changed.] as §1

Data set [3] can be described thus: Solubility observed in the cytotoxic testing. The data set is classed as physicochemical. The note with it: observation during MTT testing.
A further data set concerns caspase-3. The conditions noted are these: cited from earlier work.
Where [4] appears, read: Homo sapiens, MDA-MB-231, MDA-MB-231, MTT assay, read-out: IC50.
Setting [5] is: Homo sapiens, MDA-MB-231, MDA-MB-231, MTT assay, read-out: IC50 (μg/mL).

SMILES strings stand for the structures. Like-named read-outs stand apart in the source and are kept apart here.

Consider `CC(C)=CCC[C@@H](C)C1=CC(=O)C(C)=C(O)C1=O` [Compound 2, isoperezone, reference compound], for which the IC50 in data set [1] (setting [4]) was determined as 19.31 ± 0.05 µM; in data set [1] (setting [5]), 4.79 ± 0.01 µg/mL.

`CC1=CC(=O)C(C(C)CCC2OC2(C)C)=C(O)C1=O` (centres unmarked) [Compound 3]: the mortality at 24 h in data set [2] turned out to be 19.5 ± 3.27%. Moreover, the IC50 in data set [1] (setting [4]) worked out at 9.62 ± 0.76 µM; in data set [1] (setting [5]), 2.54 ± 0.2 µg/mL.

`CC1=C(O)C(=O)C(C(C)CCC2OC2(C)C)=CC1=O` (centres unmarked) [Compound 4]: in data set [2], the mortality at 24 h is 42.38 ± 0.19%. The IC50 in data set [1] (setting [4]) was found to be 114 ± 31.8 µM; in data set [1] (setting [5]) it was 30 µg/mL; in data set [1] (MDA-MB-231, MTT assay), 30.2 ± 8.4 µg/mL.

For `CC1=CC(=O)C(C(C)CCC2OC(C)(C)OC2(C)C)=C(O)C1=O` (centres unmarked) [Compound 5], the mortality at 24 h in data set [2] is 90.7 ± 0.58%. Further, the IC50 was found to be 74.9 ± 14.8 µM in data set [1] (setting [4]) and 24.1 ± 4.75 µg/mL in data set [1] (setting [5]).

For `CC1=C(O)C(=O)C(C(C)CCC2OC(C)(C)OC2(C)C)=CC1=O` (centres unmarked) [Compound 6], the mortality at 24 h in data set [2] stood at 18.4 ± 1.54%. Moreover, the values for the IC50 in data set [1] (setting [4]) and in data set [1] (setting [5]) were 8.44 ± 1.46 µM and 2.72 ± 0.47 µg/mL, respectively.

Regarding `CC(=O)OC(C)(C)C(O)CCC(C)C1=C(O)C(=O)C(C)=CC1=O` (centres unmarked) [Compound 7], the “solubility in the cytotoxic/IC50 testing (in words)” value in data set [3] is “did not show great solubility”. The mortality at 24 h in data set [2] is 96.8 ± 2.76%. For the same compound, the IC50 in data set [1] (setting [4]) came out at 103 ± 5.96 µM; in data set [1] (setting [5]), 33.2 ± 1.93 µg/mL.

Turning to `CC(=O)OC(C)(C)C(O)CCC(C)C1=CC(=O)C(C)=C(O)C1=O` (centres unmarked) [Compound 8], the “solubility in the cytotoxic/IC50 testing (in words)” value in data set [3] was “poor solubility”. Also, the IC50 in data set [1] (setting [5]) was determined as 33 µg/mL.

As to `CC1=CC(=O)C(C(C)CCC(O)C(C)(C)O)=C(O)C1=O` (centres unmarked) [Compound 9], the mortality at 24 h in data set [2] was 46.4 ± 1.08%. The IC50 in data set [1] (setting [4]) turned out to be 101 ± 19.2 µM; in data set [1] (setting [5]), 28.4 ± 5.4 µg/mL.

The compound `CC1=C(O)C(=O)C(C(C)CCC(O)C(C)(C)O)=CC1=O` (centres unmarked) [Compound 10] returned a mortality at 24 h in data set [2] of 68.7 ± 1.08%. Moreover, the figures for the IC50 in data set [1] (setting [4]) and in data set [1] (setting [5]) were 140 ± 6.13 µM and 39.4 ± 1.73 µg/mL, respectively.

With `O=C[C@H](O)[C@@H](O)[C@@H](O)[C@H](O)C(=O)O` [D-galacturonic acid], the “binding energy with caspase-3” value in the data set on caspase-3 (assessed for diabetes mellitus) was -4.03 kcal/mol.

For `CC1=CC(=O)c2c(O)cccc2C1=O` [plumbagin], the “binding energy of complex with caspase-3” value with caspase-3 was -10.13 kcal/mol.
